Results taken from PubChem BioAssay AID248 (DTP/NCI, 2004).
Several values for one entry are separate records, joined by “and”; a condition that tells them apart may be missing. Identical values can stand only once. Inconclusive results and toxic doses are left out. No stated cut-off is given here; in the data, active means T/C of 150% or more; inactive means T/C below 125%.

Tested on: L1210 leukemia ip in BDF1 mice, survival T/C
Assay: NCI In Vivo Anticancer Drug Screen. Data for tumor model L1210 Leukemia (intraperitoneal) in B6D2F1 (BDF1) mice
Settings: endpoint: mean survival time, higher = longer survival
How it was run: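 Each compound was tested against a transplantable tumor grown in mice. The endpoint was survival, with treated animals benchmarked against vehicle controls as a simple ratio.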

[1] = dose: 100.0 mg/kg/injection, schedule: Q04DX003 (ip), vehicle: saline with Tween-80
[2] = dose: 200.0 mg/kg/injection, schedule: Q04DX003 (ip), vehicle: saline with Tween-80
[3] = dose: 400.0 mg/kg/injection, schedule: Q04DX003 (ip), vehicle: saline with Tween-80
[4] = dose: 100.0 mg/kg/injection, schedule: Q04DX003 (ip), vehicle: Klucel (hydroxypropylcellulose) (HPC)
[5] = dose: 200.0 mg/kg/injection, schedule: Q04DX003 (ip), vehicle: Klucel (hydroxypropylcellulose) (HPC)
[6] = dose: 400.0 mg/kg/injection, schedule: Q04DX003 (ip), vehicle: Klucel (hydroxypropylcellulose) (HPC)
[7] = dose: 200.0 mg/kg/injection, schedule: Q01DX001 (ip), vehicle: carboxymethylcellulose (CMC)
[8] = dose: 400.0 mg/kg/injection, schedule: Q01DX001 (ip), vehicle: carboxymethylcellulose (CMC)

Measured: T/C

C=CCc1cnc(N)[nH]c1=O
inactive: [1] 103 % of control | [2] 97 % of control | [3] 100 % of control

CC(C)(C(=O)O)c1ccc(-c2ccccc2)cc1
inactive: [1] 102 % of control | [2] 97 % of control | [3] 106 % of control

CCN(CC)CCSc1ncnc2nc[nH]c12
inactive: dose: 75.0 mg/kg/injection, schedule: Q01DX001 (ip), vehicle: saline 102 % of control | dose: 150.0 mg/kg/injection, schedule: Q01DX001 (ip), vehicle: saline 91 % of control | dose: 300.0 mg/kg/injection, schedule: Q01DX001 (ip), vehicle: saline 104 % of control

CCCCCN(CCCCC)CCCNc1c2c(nc3ccc(Cl)cc13)CCCC2
inactive: dose: 50.0 mg/kg/injection, schedule: Q01DX001 (ip), vehicle: saline 96 % of control

c1ccc(Oc2ccccn2)cc1
inactive: dose: 50.0 mg/kg/injection, schedule: Q04DX003 (ip), vehicle: Klucel (hydroxypropylcellulose) (HPC) 91 % of control | [4] 94 % of control | [5] 94 % of control | [6] 97 % of control

CC/C(=C(\CC)c1ccc(OCCOS(=O)(=O)c2ccccc2)cc1)c1ccc(OCCOS(=O)(=O)c2ccccc2)cc1
inactive: dose: 12.5 mg/kg/injection, schedule: Q04DX002 (ip), vehicle: saline 101 % of control | dose: 25.0 mg/kg/injection, schedule: Q04DX002 (ip), vehicle: saline 101 % of control | dose: 50.0 mg/kg/injection, schedule: Q04DX002 (ip), vehicle: saline 101 % of control

O=C(O)CSc1c([N+](=O)[O-])cc(C(F)(F)F)cc1[N+](=O)[O-]
inactive: dose: 50.0 mg/kg/injection, schedule: Q01DX009 (ip), vehicle: Klucel (hydroxypropylcellulose) (HPC) 101 % of control | dose: 100.0 mg/kg/injection, schedule: Q01DX009 (ip), vehicle: Klucel (hydroxypropylcellulose) (HPC) 101 % of control | dose: 200.0 mg/kg/injection, schedule: Q01DX009 (ip), vehicle: Klucel (hydroxypropylcellulose) (HPC) 95 % of control

COc1ccccc1C1OCC(C)(C)N1C (configuration not stated)
inactive: dose: 100.0 mg/kg/injection, schedule: Q01DX009 (ip), vehicle: saline with Tween-80 101 % of control | [4] 97 % of control and 105 % of control | dose: 200.0 mg/kg/injection, schedule: Q01DX009 (ip), vehicle: saline with Tween-80 95 % of control | [5] 95 % of control | dose: 400.0 mg/kg/injection, schedule: Q01DX009 (ip), vehicle: saline with Tween-80 102 % of control | [6] 94 % of control and 93 % of control

O=C(O)CC1Sc2ccccc2NC1=O (configuration not stated)
inactive: dose: 100.0 mg/kg/injection, schedule: Q01DX001 (ip), vehicle: Klucel (hydroxypropylcellulose) (HPC) 105 % of control | dose: 200.0 mg/kg/injection, schedule: Q01DX001 (ip), vehicle: Klucel (hydroxypropylcellulose) (HPC) 94 % of control | dose: 400.0 mg/kg/injection, schedule: Q01DX001 (ip), vehicle: Klucel (hydroxypropylcellulose) (HPC) 105 % of control

O=C1C2CCCCC2C(=O)N1O (configuration not stated)
inactive: dose: 100.0 mg/kg/injection, schedule: Q01DX001 (ip), vehicle: saline 94 % of control | dose: 100.0 mg/kg/injection, schedule: Q04DX003 (ip), vehicle: saline 102 % of control | dose: 200.0 mg/kg/injection, schedule: Q01DX001 (ip), vehicle: saline 92 % of control | dose: 200.0 mg/kg/injection, schedule: Q04DX003 (ip), vehicle: saline 96 % of control | dose: 400.0 mg/kg/injection, schedule: Q01DX001 (ip), vehicle: saline 94 % of control | dose: 400.0 mg/kg/injection, schedule: Q04DX003 (ip), vehicle: saline 103 % of control

COC1=CC(=O)C2=C(C1=O)C1(C)CCCC(C)(COC(C)=O)C1CC2 (configuration not stated)
inactive: [7] 95 % of control | [8] 88 % of control

CC(=O)OCC1OC(n2cc(C)c(=O)[nH]c2=O)C(Nc2ccc([N+](=O)[O-])cc2[N+](=O)[O-])C(OC(C)=O)C1OC(C)=O (configuration not stated)
inactive: dose: 50.0 mg/kg/injection, schedule: Q01DX001 (ip), vehicle: carboxymethylcellulose (CMC) 97 % of control | dose: 100.0 mg/kg/injection, schedule: Q01DX001 (ip), vehicle: carboxymethylcellulose (CMC) 94 % of control | [7] 94 % of control | [8] 89 % of control

NC(N)=NC(N)=Nc1ccc([As](=O)(O)O)c(O)c1
inactive: dose: 25.0 mg/kg/injection, schedule: Q01DX009 (ip), vehicle: saline 101 % of control | dose: 40.0 mg/kg/injection, schedule: Q01DX009 (ip), vehicle: Klucel (hydroxypropylcellulose) (HPC) 108 % of control | dose: 50.0 mg/kg/injection, schedule: Q01DX009 (ip), vehicle: saline 98 % of control | dose: 80.0 mg/kg/injection, schedule: Q01DX009 (ip), vehicle: Klucel (hydroxypropylcellulose) (HPC) 101 % of control | dose: 100.0 mg/kg/injection, schedule: Q01DX009 (ip), vehicle: saline 108 % of control | dose: 160.0 mg/kg/injection, schedule: Q01DX009 (ip), vehicle: Klucel (hydroxypropylcellulose) (HPC) 104 % of control
